# Biological target: T1, ALK5 kinase (Homo sapiens, UniProt P36897)
# T1 construct: GST; purchased Thermo Fisher Scientific Solutions
# T1 sequence (P36897 34-503): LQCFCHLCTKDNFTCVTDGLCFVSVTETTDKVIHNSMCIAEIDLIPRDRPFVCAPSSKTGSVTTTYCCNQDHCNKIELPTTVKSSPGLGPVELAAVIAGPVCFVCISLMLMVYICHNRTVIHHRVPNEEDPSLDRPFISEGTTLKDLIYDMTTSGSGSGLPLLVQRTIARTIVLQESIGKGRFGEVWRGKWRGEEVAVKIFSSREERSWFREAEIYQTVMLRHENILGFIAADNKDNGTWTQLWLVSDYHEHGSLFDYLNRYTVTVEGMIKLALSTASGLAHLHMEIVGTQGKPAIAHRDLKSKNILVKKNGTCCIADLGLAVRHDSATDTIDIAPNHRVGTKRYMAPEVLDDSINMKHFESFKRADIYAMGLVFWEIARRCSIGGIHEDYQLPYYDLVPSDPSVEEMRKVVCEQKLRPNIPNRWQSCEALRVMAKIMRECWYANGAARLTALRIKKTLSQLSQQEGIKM
# Test: Activity inhibition test on ALK5 enzyme (LanthaScreen Eu binding kinase assay)
# Conditions: kinase tracer 178, 60 minutes at room temperature
# In short: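 IC50 is the concentration giving 50% inhibition relative to control, taken from fluorescence after 60 min stirring at room temperature. Final mix held kinase 5 nM, Eu-GST binding antibody 2 nM and tracer 178 10 nM. Compounds were serially diluted from 1 μM to 0.0001 μM.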
row,IC50,SMILES
1,3.7 nM,"Cc1cccc(-n2nc(C(=O)Nc3ccc(S(C)(=O)=O)cc3)cc2-c2ccc3ncnn3c2)n1 [Example 147, 5-([1,2,4]triazolo[1,5-α]pyridin-6-yl)-N-(4-(methylsulfonyl)phenyl)-1-(6-methylpyridin-2-yl)-1H-pyrazole-3-carboxyamide]"
2,8.3 nM,"Cc1cccc(-n2nc(C(=O)Nc3ccc(S(N)(=O)=O)cc3)cc2-c2ccc3ncnn3c2)n1 [Example 148, 5-([1,2,4]triazolo[1,5-α]pyridin-6-yl)-N-(4-sulfamoylphenyl)-1-(6-methylpyridin-2-yl)-1H-pyrazole-3-carboxyamide]"
3,7.7 nM,"Cc1cccc(-n2nc(C(=O)Nc3ccc(S(C)(=N)=O)cc3)cc2-c2ccc3ncnn3c2)n1 (stereo not drawn) [Example 149, 5-([1,2,4]triazolo[1,5-α]pyridin-6-yl)-N-(4-(S-methylsulfonimidoyl)phenyl)-1-(6-methylpyridin-2-yl)-1H-pyrazole-3-carboxyamide]"
4,4.8 nM,"CCCS(=O)(=O)c1ccc(NC(=O)c2cc(-c3ccc4ncnn4c3)n(-c3cccc(C)n3)n2)cc1 [Example 150, 5-([1,2,4]triazolo[1,5-α]pyridin-6-yl)-N-(4-(propylsulfonyl)phenyl)-1-(6-methylpyridin-2-yl)-1H-pyrazole-3-carboxyamide]"
5,2.7 nM,"CCCS(=O)(=O)c1ccc(NC(=O)c2cc(-c3ccc4ncnn4c3)n(-c3cccc(C)n3)n2)cc1 [Example 151, 5-([1,2,4]triazolo[1,5-α]pyridin-6-yl)-N-(4-(propylsulfonyl)phenyl)-1-(6-methylpyridin-2-yl)-1H-pyrazole-3-carboxyamide]"
6,4.6 nM,"Cc1cccc(-n2nc(C(=O)Nc3ccc(F)nc3)cc2-c2ccc3ncnn3c2)n1 [Example 152, 5-([1,2,4]triazolo[1,5-α]pyridin-6-yl)-N-(6-fluoropyridin-3-yl)-1-(6-methylpyridin-2-yl)-1H-pyrazole-3-carboxyamide]"
7,25 nM,"Cc1cccc(-n2nc(C(=O)Nc3ccc(Cl)nc3)cc2-c2ccc3ncnn3c2)n1 [Example 153, 5-([1,2,4]triazolo[1,5-α]pyridin-6-yl)-N-(6-chloropyridin-3-yl)-1-(6-methylpyridin-2-yl)-1H-pyrazole-3-carboxyamide]"
8,~10 nM,"COc1ccc(NC(=O)c2cc(-c3ccc4ncnn4c3)n(-c3cccc(C)n3)n2)cn1 [Example 154, 5-([1,2,4]triazolo[1,5-α]pyridin-6-yl)-N-(6-methoxypyridin-3-yl)-1-(6-methylpyridin-2-yl)-1H-pyrazole-3-carboxyamide]"
9,13 nM,"Cc1cccc(-n2nc(C(=O)NCc3ccccc3F)cc2-c2ccc3ncnn3c2)n1 [Example 155, 5-([1,2,4]triazolo[1,5-α]pyridin-6-yl)-N-(2-fluorobenzyl)-1-(6-methylpyridin-2-yl)-1H-pyrazole-3-carboxyamide]"
10,22 nM,"Cc1cccc(-n2nc(C(=O)NCc3cccc(F)c3)cc2-c2ccc3ncnn3c2)n1 [Example 156, 5-([1,2,4]triazolo[1,5-α]pyridin-6-yl)-N-(3-fluorobenzyl)-1-(6-methylpyridin-2-yl)-1H-pyrazole-3-carboxyamide]"
11,10 to 100 nM,"Cc1cccc(-n2nc(C(=O)NCc3ccc(F)cc3)cc2-c2ccc3ncnn3c2)n1 [Example 157, 5-([1,2,4]triazolo[1,5-α]pyridin-6-yl)-N-(4-fluorobenzyl)-1-(6-methylpyridin-2-yl)-1H-pyrazole-3-carboxyamide]"
12,10 to 100 nM,"COc1cccc(CNC(=O)c2cc(-c3ccc4ncnn4c3)n(-c3cccc(C)n3)n2)c1 [Example 158, 5-([1,2,4]triazolo[1,5-α]pyridin-6-yl)-N-(3-methoxybenzyl)-1-(6-methylpyridin-2-yl)-1H-pyrazole-3-carboxyamide]"
13,10 to 100 nM,"COc1ccc(CNC(=O)c2cc(-c3ccc4ncnn4c3)n(-c3cccc(C)n3)n2)cc1 [Example 159, 5-([1,2,4]triazolo[1,5-α]pyridin-6-yl)-N-(4-methoxybenzyl)-1-(6-methylpyridin-2-yl)-1H-pyrazole-3-carboxyamide]"
14,10 to 100 nM,"Cc1cccc(-n2nc(C(=O)NCc3ccc(N(C)C)cc3)cc2-c2ccc3ncnn3c2)n1 [Example 160, 5-([1,2,4]triazolo[1,5-α]pyridin-6-yl)-N-(4-(dimethylamino)benzyl)-1-(6-methylpyridin-2-yl)-1H-pyrazole-3-carboxyamide]"
15,10 to 100 nM,"CC(=O)Nc1ccc(CNC(=O)c2cc(-c3ccc4ncnn4c3)n(-c3cccc(C)n3)n2)cc1 [Example 161, 5-([1,2,4]triazolo[1,5-α]pyridin-6-yl)-N-(4-acetamidobenzyl)-1-(6-methylpyridin-2-yl)-1H-pyrazole-3-carboxyamide]"
16,2 nM,"Cc1cccc(-n2nc(C(=O)Nc3cnn(S(C)(=O)=O)c3)cc2-c2ccc3ncnn3c2)n1 [Example 162, 5-([1,2,4]triazolo[1,5-α]pyridin-6-yl)-1-(6-methylpyridin-2-yl)-N-(1-(methylsulfonyl)-1H-pyrazol-4-yl)-1H-pyrazole-3-carboxyamide]"

row,IC50,SMILES
1,18 nM,"COc1ccc(NC(=O)c2cc(-c3ccc4nccnc4c3)n(-c3cccc(C)n3)n2)cc1 [Example 164, N-(4-methoxyphenyl)-1-(6-methylpyridin-2-yl)-5-(quinoxalin-6-yl)-1H-pyrazole-3-carboxyamide]"
2,24 nM,"COc1cccc(NC(=O)c2cc(-c3ccc4nccnc4c3)n(-c3cccc(C)n3)n2)c1 [Example 165, N-(3-methoxyphenyl)-1-(6-methylpyridin-2-yl)-5-(quinoxalin-6-yl)-1H-pyrazole-3-carboxyamide]"
3,~100 nM,"COc1ccccc1NC(=O)c1cc(-c2ccc3nccnc3c2)n(-c2cccc(C)n2)n1 [Example 166, N-(2-methoxyphenyl)-1-(6-methylpyridin-2-yl)-5-(quinoxalin-6-yl)-1H-pyrazole-3-carboxyamide]"
4,≤ 100 nM,"COCCOc1ccc(NC(=O)c2cc(-c3ccc4nccnc4c3)n(-c3cccc(C)n3)n2)cc1 [Example 167, N-(4-(2-methoxyethoxy)phenyl)-1-(6-methylpyridin-2-yl)-5-(quinoxalin-6-yl)-1H-pyrazole-3-carboxyamide]"
5,≤ 100 nM,"Cc1cccc(-n2nc(C(=O)Nc3ccc4c(c3)OCO4)cc2-c2ccc3nccnc3c2)n1 [Example 168, N-(benzo[d][1,3]dioxol-5-yl)-1-(6-methylpyridin-2-yl)-5-(quinoxalin-6-yl)-1H-pyrazole-3-carboxyamide]"
6,10 to 100 nM,"Cc1cccc(-n2nc(C(=O)Nc3ccc4c(c3)OCCO4)cc2-c2ccc3nccnc3c2)n1 [Example 169, N-(2,3-dihydrobenzo[b][1,4]dioxin-6-yl)-1-(6-methylpyridin-2-yl)-5-(quinoxalin-6-yl)-1H-pyrazole-3-carboxyamide]"
7,< 100 nM,"Cc1cccc(-n2nc(C(=O)Nc3ccc(N(C)C)cc3)cc2-c2ccc3nccnc3c2)n1 [Example 170, N-(4-(dimethylamino)phenyl)-1-(6-methylpyridin-2-yl)-5-(quinoxalin-6-yl)-1H-pyrazole-3-carboxyamide]"
8,10 to 100 nM,"Cc1cccc(-n2nc(C(=O)Nc3ccc(N4CCOCC4)cc3)cc2-c2ccc3nccnc3c2)n1 [Example 171, 1-(6-methylpyridin-2-yl)-N-(4-morpholinophenyl)-5-(quinoxalin-6-yl)-1H-pyrazole-3-carboxyamide]"
9,10 to 100 nM,"Cc1cccc(-n2nc(C(=O)Nc3ccc(N4CCN(C)CC4)cc3)cc2-c2ccc3nccnc3c2)n1 [Example 172, N-(4-(4-methylpiperazin-1-yl)phenyl)-1-(6-methylpyridin-2-yl)-5-(quinoxalin-6-yl)-1H-pyrazole-3-carboxyamide]"
10,10 to 100 nM,"CC(=O)N1CCN(c2ccc(NC(=O)c3cc(-c4ccc5nccnc5c4)n(-c4cccc(C)n4)n3)cc2)CC1 [Example 173, N-(4-(4-acetylpiperazin-1-yl)phenyl)-1-(6-methylpyridin-2-yl)-5-(quinoxalin-6-yl)-1H-pyrazole-3-carboxyamide]"
11,< 100 nM,"Cc1cccc(-n2nc(C(=O)Nc3ccc(C#N)cc3)cc2-c2ccc3nccnc3c2)n1 [Example 174, N-(4-cyanophenyl)-1-(6-methylpyridin-2-yl)-5-(quinoxalin-6-yl)-1H-pyrazole-3-carboxyamide]"
12,< 100 nM,"Cc1cccc(-n2nc(C(=O)Nc3cccc(C#N)c3)cc2-c2ccc3nccnc3c2)n1 [Example 175, N-(3-cyanophenyl)-1-(6-methylpyridin-2-yl)-5-(quinoxalin-6-yl)-1H-pyrazole-3-carboxyamide]"
13,~100 nM,"Cc1cccc(-n2nc(C(=O)Nc3ccc(CN4CCOCC4)cc3)cc2-c2ccc3nccnc3c2)n1 [Example 177, 1-(6-methylpyridin-2-yl)-N-(4-(morpholinomethyl)phenyl)-5-(quinoxalin-6-yl)-1H-pyrazole-3-carboxyamide]"
14,10 to 100 nM,"CC(=O)c1ccc(NC(=O)c2cc(-c3ccc4nccnc4c3)n(-c3cccc(C)n3)n2)cc1 [Example 178, N-(4-acetylphenyl)-1-(6-methylpyridin-2-yl)-5-(quinoxalin-6-yl)-1H-pyrazole-3-carboxyamide]"
15,< 100 nM,"CC(=O)c1cccc(NC(=O)c2cc(-c3ccc4nccnc4c3)n(-c3cccc(C)n3)n2)c1 [Example 179, N-(3-acetylphenyl)-1-(6-methylpyridin-2-yl)-5-(quinoxalin-6-yl)-1H-pyrazole-3-carboxyamide]"
